{"source": "ChEMBL document CHEMBL1141835", "about": "“Sclerotigenin: A new antiinsectan benzodiazepine from the sclerotia of penicillium sclerotigenum” (1999)", "test_system": "Helicoverpa zea", "assay": "Insecticidal activity against first instar larvae of Helicoverpa zea at 200 ppm administered with diet relative to control", "format": "functional"}
{"smiles": "O=C1NCc2nc3ccccc3c(=O)n2-c2ccccc21", "note": "[SCLEROTIGENIN]", "values": [{"measurement": "Activity", "value": 42, "unit": "%"}]}
